Experimental data as given in patent US11696913B2, “Prolonged ectoparasite-controlling agent for animal” (MITSUI CHEMICALS AGRO, INC., priority 2017, dated 2023).

Assays:
Ctenocephalides felis [1] = experiment: In vitro contact test with fleas; conditions: read-out: insecticidal activity; for pest or weed control at 0.04 µg/cm2, 0.04 µg/cm2: dose 0.04 μg/cm^2, dead or moribund fleas after 48 h; for pest or weed control at 0.2 µg/cm2, 0.2 µg/cm2: dose 0.2 μg/cm^2, dead or moribund fleas after 48 h; for pest or weed control at 1 µg/cm2, 1 µg/cm2: dose 1 μg/cm^2, dead or moribund fleas after 48 h
Summary of the method: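 Adult male and female cat fleas (5-10 per tube) placed in glass tubes coated with compound from acetone solution (900 ppm gives 5 μg/cm^2), kept at room temperature and ambient humidity. After 48 h, motionless or uncoordinated fleas scored dead or moribund; activity expressed as % dead or moribund.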

Dermacentor variabilis = experiment: In vitro contact test with adult hard ticks (Dermacentor variabilis); conditions: read-out: acaricidal activity; for pest or weed control at 0.2 µg/cm2, 0.2 µg/cm2: dose 0.2 μg/cm^2, 48 h; for pest or weed control at 1 µg/cm2, 1 µg/cm2: dose 1 μg/cm^2, 48 h
Summary of the method: (§1)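 Adult R. sanguineus, I. ricinus, D. variabilis or A. americanum nymphs exposed in glass vials coated with compound from acetone (900 ppm gives 5 μg/cm^2). Held 48 h at room temperature (R. sanguineus) or 21° C., 85% rel. hum.; then heated at 45-50° C. ≤5 min, motionless or uncoordinated ticks scored dead/moribund.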

Amblyomma americanum = experiment: In vitro contact test with hard ticks (Amblyomma americanum nymphs); conditions: read-out: acaricidal activity; for pest or weed control at 1 µg/cm2, 1 µg/cm2: dose 1 μg/cm^2, 48 h; for pest or weed control at 0.2 µg/cm2, 0.2 µg/cm2: dose 0.2 μg/cm^2, 48 h
Summary of the method: as §1

Rhipicephalus sanguineus = experiment: In vitro contact test with adult hard ticks (Rhipicephalus sanguineus); conditions: read-out: acaricidal activity; for pest or weed control at 0.2 µg/cm2, 0.2 µg/cm2: dose 0.2 μg/cm^2, 48 h; for pest or weed control at 1 µg/cm2, 1 µg/cm2: dose 1 μg/cm^2, 48 h
Summary of the method: as §1

Ctenocephalides felis [2] = experiment: Ctenocephalides felis in-vitro feeding test with fleas (CTECFE oral); conditions: 48 hours, read-out: insecticidal feeding activity; for pest or weed control at 0.16 ppm: dose 0.16 ppm in citrated cattle blood; for pest or weed control at 0.8 ppm: dose 0.8 ppm in citrated cattle blood; for pest or weed control at 4 ppm: dose 4 ppm in citrated cattle blood; for pest or weed control at 0.032 ppm: dose 0.032 ppm in citrated cattle blood
Summary of the method: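 About 20 unfed adult cat fleas fed through parafilm on citrated cattle blood containing test substance (DMSO solution diluted in blood), held at about 37° C. Kill rate scored after 48 hours, 100% meaning all fleas dead.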

[3] = test system: Rhipicephalus (Boophilus) microplus; experiment: In vitro injection test with Rhipicephalus (Boophilus) microplus (BOOPMI Inj); conditions: 168 h, laid fertile eggs after 7 days, read-out: acaricidal activity; for pest or weed control at 32 ng: dose 0.032 μg/animal injected; for pest or weed control at 0.00016 mg: dose 0.16 μg/animal injected; for pest or weed control at 0.0008 mg: dose 0.8 μg/animal injected
Summary of the method: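 Test substance in DMSO; 1 μl injected into abdomen of each of 5 engorged adult female ticks, then held at 28° C., 85% rel. hum. Activity scored after 7 days from laying of fertile eggs: 100% = no eggs or all infertile, 0% = all eggs fertile.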

Laodelphax striatellus = experiment: Insecticidal testing against small brown planthopper; format: in vivo; conditions: 144 h, concentration 100 ppm, sprayed rice seedlings, after 6 days, read-out: pesticidal rate
Summary of the method: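 Acetone solution of compound at a set concentration sprayed onto rice seedlings, air-dried, then exposed to 10 planthoppers (one group). Held at 25° C; survival rate recorded after 6 days.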

Spodoptera litura = experiment: Insecticidal testing against common cutworm; format: in vivo; conditions: foliar, 144 h, concentration 100 ppm, cabbage leaf dip, second-stage larvae, after 6 days, read-out: pesticidal rate
Text: Insecticidal Testing Against Common Cutworm (Spodoptera litura)

Plutella xylostella = experiment: Insecticidal testing against diamondback moth; format: in vivo; conditions: foliar, 144 h, concentration 100 ppm, cabbage leaf dip, third-stage larvae, after 6 days, read-out: pesticidal rate
Text: Insecticidal Testing Against Diamondback Moth (Plutella xylostella)

Ixodes ricinus = experiment: In vitro contact test with adult hard ticks (Ixodes ricinus); conditions: read-out: acaricidal activity; for pest or weed control at 1 µg/cm2, 1 µg/cm2: dose 1 μg/cm^2, 48 h; for pest or weed control at 5 µg/cm2, 5 µg/cm2: dose 5 μg/cm^2, 48 h
Protocol: In Vitro Contact Tests with Adult Hard Ticks
In vitro contact tests with ticks were conducted with adult males and females of Rhipicephalus sanguineus, Ixodes ricinus, or Dermacentor variabilis, or nymphs of Amblyomma americanum.
For the coating of the test vials, the test substance was dissolved and diluted in acetone p.a. to the desired concentration. The solution was then homogeneously applied to the inner wall and base of a glass vial by turning and rocking on an orbital shaker until complete evaporation of the solvent. For example, with a 900 ppm solution of test substance, an area-based dose of 5 μg/cm^2 was achieved.
After the solvent was completely evaporated, 5-10 adult ticks were put in each coated test vial, which was then sealed with a perforated plastic lid and incubated in a horizontal position in the dark at room temperature and ambient humidity (Rhipicephalus sanguineus) or in a climate-controlled cabinet (Ixodes ricinus, Dermacentor variabilis, Amblyomma americanum [21° C., 85% rel. hum.]). Acaricidal activity against the respective tick species was determined after 48 h. For this, ticks were collected to the base of the test vial by gentle knocking, and test vials were then incubated on a hotplate at 45-50° C. for no longer than 5 min. Ticks which remained motionless on the base of the test vial or moved uncoordinated without deliberately climbing up to avoid the heat were considered dead or moribund, respectively.
A substance was judged to have good acaricidal activity against the respective tick species when at least 80% of ticks were found dead or moribund at a dose of the substance of g/cm^2. An acaricidal activity of 100% means all ticks were dead or moribund. An acaricidal activity of 0% means none of the ticks was found dead or moribund.

Row | Compound | pest or weed control at 0.2 µg/cm2, 0.2 µg/cm2 (Ctenocephalides felis [1]) [%] | pest or weed control at 1 µg/cm2, 1 µg/cm2 (Ctenocephalides felis [1]) [%] | pest or weed control at 0.2 µg/cm2, 0.2 µg/cm2 (Dermacentor variabilis) [%] | pest or weed control at 1 µg/cm2, 1 µg/cm2 (Dermacentor variabilis) [%] | pest or weed control at 1 µg/cm2, 1 µg/cm2 (Amblyomma americanum) [%] | pest or weed control at 0.2 µg/cm2, 0.2 µg/cm2 (Rhipicephalus sanguineus) [%] | pest or weed control at 1 µg/cm2, 1 µg/cm2 (Rhipicephalus sanguineus) [%] | pest or weed control at 0.16 ppm (Ctenocephalides felis [2]) [%] | pest or weed control at 0.8 ppm (Ctenocephalides felis [2]) [%] | pest or weed control at 4 ppm (Ctenocephalides felis [2]) [%] | pest or weed control at 32 ng [3] [%] | pest or weed control at 0.00016 mg [3] [%] | pest or weed control at 0.0008 mg [3] [%] | pest or weed control at 100 ppm (Laodelphax striatellus) [%] | pest or weed control at 100 ppm (Spodoptera litura) [%] | pest or weed control at 100 ppm (Plutella xylostella) [%] | pest or weed control at 0.032 ppm (Ctenocephalides felis [2]) [%] | pest or weed control at 1 µg/cm2, 1 µg/cm2 (Ixodes ricinus) [%] | pest or weed control at 5 µg/cm2, 5 µg/cm2 (Ixodes ricinus) [%] | other results
1 | CN(C(=O)c1ccc(C#N)nc1)c1cccc(C(=O)Nc2c(I)cc(C(F)(C(F)(F)F)C(F)(F)F)cc2C(F)(F)F)c1F [Compound 57] | 95 | 95 | 90 | 90 | 90 | 90 | 90 | 95 | 95 | 95 | 100 | 100 | 100 | ≥ 70 | ≥ 70 | ≥ 70 | – | – | – | pest or weed control at 0.04 µg/cm2, 0.04 µg/cm2 (Ctenocephalides felis [1]): 95%
2 | CN(C(=O)c1ccc(Cl)cc1)c1cccc(C(=O)Nc2c(I)cc(C(F)(C(F)(F)F)C(F)(F)F)cc2C(F)(F)F)c1F [Compound 60] | 95 | 95 | – | 90 | 90 | 90 | 90 | 95 | 95 | 95 | 100 | 100 | 100 | ≥ 70 | ≥ 70 | ≥ 70 | – | – | – | pest or weed control at 0.2 µg/cm2, 0.2 µg/cm2 (Amblyomma americanum): 90%
3 | COc1ccc(C(=O)N(C)c2cccc(C(=O)Nc3c(I)cc(C(F)(C(F)(F)F)C(F)(F)F)cc3C(F)(F)F)c2F)cc1 [Compound 62] | 95 | 95 | – | 90 | 90 | – | 90 | 95 | 95 | 95 | – | 100 | 100 | ≥ 70 | ≥ 70 | ≥ 70 | – | – | – | –
4 | O=C(Nc1cccc(C(=O)Nc2c(I)cc(C(F)(C(F)(F)F)C(F)(F)F)cc2C(F)(F)F)c1F)c1ccc(F)cc1 [Compound 63] | – | 95 | 90 | 90 | – | 90 | 90 | 95 | 95 | 95 | – | 100 | 100 | ≥ 70 | ≥ 70 | ≥ 70 | 95 | 90 | 90 | pest or weed control at 0.2 µg/cm2, 0.2 µg/cm2 (Ixodes ricinus; dose 0.2 μg/cm^2, 48 h): 90%
5 | CN(C(=O)c1ccc(F)cc1)c1cccc(C(=O)Nc2c(Cl)cc(C(F)(C(F)(F)F)C(F)(F)F)cc2C(F)(F)F)c1F [Compound 68] | 95 | 95 | – | 90 | – | 90 | 90 | 95 | 95 | 95 | – | 100 | 100 | ≥ 70 | ≥ 70 | ≥ 70 | 95 | 90 | 90 | pest or weed control at 0.04 µg/cm2, 0.04 µg/cm2 (Rhipicephalus sanguineus; dose 0.04 μg/cm^2, 48 h): 90%
6 | CN(C(=O)c1ccc(F)c(F)c1)c1cccc(C(=O)Nc2c(I)cc(C(F)(C(F)(F)F)C(F)(F)C(F)(F)F)cc2C(F)(F)F)c1F (stereo not shown) [Compound 77] | 95 | 95 | 90 | 90 | 90 | – | 90 | 95 | 95 | 95 | 100 | 100 | 100 | ≥ 70 | ≥ 70 | ≥ 70 | – | – | – | –
7 | O=C(Nc1cccc(C(=O)Nc2c(I)cc(C(F)(C(F)(F)F)C(F)(F)F)cc2C(F)(F)F)c1F)c1ccc(Cl)c(Cl)c1 [Compound 80] | – | – | 90 | 90 | – | – | 90 | 95 | 95 | 95 | – | – | 100 | ≥ 70 | ≥ 70 | ≥ 70 | 95 | – | 90 | –
8 | O=C(Nc1cccc(C(=O)Nc2c(Br)cc(C(F)(C(F)(F)F)C(F)(F)F)cc2OC(F)(F)F)c1F)c1ccc(C(F)(F)F)nc1 [Compound 99, N-(2-fluoro-3-((2-bromo-4-(perfluoropropan-2-yl)-6-(trifluoromethoxy)phenyl)carbamoyl)phenyl)-6-(trifluoromethyl)nicotinamide] | – | – | 90 | 90 | – | 90 | 90 | 95 | 95 | 95 | – | 100 | 100 | ≥ 70 | ≥ 70 | ≥ 70 | – | 90 | – | –
9 | CN(C(=O)c1ccc(F)c(F)c1)c1cccc(C(=O)Nc2c(Br)cc(C(F)(C(F)(F)F)C(F)(F)F)cc2OC(F)(F)F)c1F [Compound 100] | 95 | 95 | 90 | 90 | 90 | – | 90 | 95 | 95 | 95 | – | 100 | 100 | ≥ 70 | ≥ 70 | ≥ 70 | – | – | – | pest or weed control at 0.04 µg/cm2, 0.04 µg/cm2 (Ctenocephalides felis [1]): 95%; pest or weed control at 0.2 µg/cm2, 0.2 µg/cm2 (Amblyomma americanum): 90%
